The record followed here is patent publication US20250346643A1, “TROPOMYOSIN KINASE RECEPTOR (TRK) LIGANDS AS THERAPEUTICS TO SUPPORT LIVER REGENERATION” (Vanderbilt University, priority 2024, published 2025).

The nature of series [1]: Storage stability of solubilized recombinant NTF3 at -80 C. Type of series: physicochemical. Conditions: solubilized in 0.1% BSA/PBS, stored at -80 C. The procedure:
Treatment with recombinant NTF3. Four months old mice were injected via tail vein for 4 consecutive days with recombinant NTF3 (STEMCELL technology, Vancouver, Canada; cat. 78074, lots 1000070683, 1000077434) diluted in sterile 0.9% saline (0.9% NaCl) or vehicle only. Mice were weighed daily and recombinant NTF3 given at 20 ng/g body weight or 100 ng/g body weight, respectively. Lyophilized NTF3 was solubilized in 0.1% BSA/PBS (bovine serum albumin, Sigma-Aldrich, St. Louis, MO; A3059) and stored at −80° C. until use.
Human HepG2 and mouse AML12 cells were grown in 6-well plates. Cells were treated with NTF3 (20 ng/ml) purchased from STEMCELL technologies, Vancouver, Canada (cat. 78074), R&D Systems, Minneapolis, MN (267-N3), Gibco, Waltham, MA (PHC7036) and/or Loxo-195 (5-10 nM) (Selleckchem, Houston, TX; S8636) in complete growth media without L-glutamine for 2 hours. Lyophilized NTF3 was solubilized with sterile filtered PBS supplemented with 0.1% BSA, aliquoted and stored at −80° C. until use. […] Protein concentration of supernatants were determined by Direct Detect Spectrophotometer (MilliporeSigma, Burlington, MA). […]
Immunoblotting. […] Protein concentration of supernatants was determined by Direct Detect Spectrophotometer (MilliporeSigma, Burlington, MA). […] The protein concentration of supernatants was determined by a Direct Detect® spectrophotometer (MilliporeSigma, Burlington, MA). […]

Series [2] has as its system CCND1. The series is described as follows: Western blot of CCND1 in HepG2 cell lysates. The series is classed as cell-based, human. The procedure: Human HepG2 and mouse AML12 cells were grown in 6-well plates. Cells were treated with NTF3 (20 ng/ml) purchased from STEMCELL technologies, Vancouver, Canada (cat. 78074), R&D Systems, Minneapolis, MN (267-N3), Gibco, Waltham, MA (PHC7036) and/or Loxo-195 (5-10 nM) (Selleckchem, Houston, TX; S8636) in complete growth media without L-glutamine for 2 hours. Lyophilized NTF3 was solubilized with sterile filtered PBS supplemented with 0.1% BSA, aliquoted and stored at −80° C. until use. […] HepG2 and AML12 cells were collected on ice in PBS, centrifuged for 10 sec […] cell pellet homogenized in RIPA buffer containing inhibitors (Roche, Basel, Switzerland; complete Mini proteinase inhibitor, 1×HALT phosphatase inhibitors, Thermo Scientific, Waltham, MA; cat. 78428). Cell lysates were sonicated and centrifuged for 10 min at 18,800×g. Protein concentration of supernatants were determined by Direct Detect Spectrophotometer (MilliporeSigma, Burlington, MA).
For immunoblot analysis, 30-50 μg of protein diluted in LSD sample buffer (Invitrogen, Waltham, MA) were analyzed per SDS-PAGE (NuPAGE™, Invitrogen, Waltham, MA) using MOPS buffer or MES buffer (Invitrogen, Waltham, MA). Gels were stained with Coomassie (Bio-Safe Coomassie G-250 Stain, Bio-Rad, Hercules, CA) and transferred onto PVDF membranes using semi-dry blotting (Trans-Blot SD, Bio-Rad, Hercules, CA). Images were visualized on an Amersham™ Imager 680 (Cytiva, Marlborough, MA). Semi-quantitative band densitometry was performed using ImageJ software (version 1.53).
On the technique in general: In western blotting, separated proteins are transferred to a membrane and probed.

Turning to “NTF3: neurotrophin-3, recombinant protein; HSC-derived hepatocyte mitogen, ligand of TRKA, TRKB, TRKC”, the “storage time at which activity and protein concentration declined significantly” value in series [1] is given as “approximately 3 months”. The “CCND1 amounts, NTF3 from three different vendors” value in series [2] (HepG2 (FIG. 9K-L)) is “CCND1 amounts increased”. Besides, the CCND1 abundance result in series [2] (HepG2, NTF3 20 ng/ml, 2 hours (FIG. 8I-J)) is given as “increased CCND1 abundance”.
